“Also recorded” adds a separate entry of the source.

The target in this data set is BSA (Bos taurus, UniProt P02769). Put plainly: Interaction of ZincBY probes with proteins (BSA): emission, absorbance, polarization. The class given is binding. As to conditions: for interaction with BSA (in words) / fluorescence turn-on in response to zinc in the presence of BSA / emission maximum in the presence of BSA: 10 mg/mL BSA; for fluorescence turn-on in response to zinc in the presence of BSA: holo vs apo; for polarization: apo and holo forms. Here is the method:
Aqueous solutions were prepared by using de-ionized water with resistivity […], obtained using a Milli-Q water purification system. In order to properly compare the photophysical properties of ZincBY-2, ZincBY-3, and ZincBY-4 to ZincBY-1, the photophysical properties of ZincBY-1 we remeasured. Tested values differed from the previously published values (Ref. B2; incorporated by reference in its entirety). It was determined that copper was present in the aqueous buffer used for in vitro analysis of the previous samples. The corrected values are used herein, utilizing buffers that are copper-free. Stock solutions of ZincBY-1, ZincBY-2, ZincBY-3, and ZincBY-4 were prepared at concentrations of 5 mM and stored at −20° C. in aliquots that were used immediately after thawing for each experiment. Unless otherwise stated, all spectroscopic methods were conducted in aqueous buffer containing 50 mM HEPES (pH 7.2) and 0.1 M KNO3. UV-visible spectra were acquired on a PerkinElmer Lambda 650 UV/Vis spectrophotometer using quartz cuvettes from Starna (1 cm path length, 10 cm path length used in extinction coefficient and quantum yield determination). Fluorescence spectra were acquired using a PerkinElmer LS 55 fluorescence spectrophotometer. For measurements containing zinc, 99.0% ZnNO3 hexahydrate (final concentration 5 μM) was used. For experiments analyzing apo probes, N,N,N′,N′-Tetrakis(2-pyridylmethyl)ethylenediamine (TPEN) (final concentration 5 μM) was added to solution. Quantum Yield and Extinction Coefficient Determination. Quantum yields for apo and holo ZincBY-1, ZincBY-2, ZincBY-3, and ZincBY-4 were determined by plotting absorbance vs. fluorescence intensity of solutions containing ZincBY-1, ZincBY-2, ZincBY-3, or ZincBY-4 at probe concentrations ranging from 50-250 nM. Serial dilution was used to make solutions at different concentrations. Fluorescein dissolved in 0.1 N NaOH was used as the quantum yield standard, using a literature-determined quantum yield of 0.95.^3 For all fluorophore solutions, fluorescence excitation was set at 490 nm and fluorescence emission was integrated from 510 nm to 650 nm. Zinc Dissociation Constant. Fluorescence spectra were recorded using zinc probes (ZincBY-1, ZincBY-2, ZincBY-3, or ZincBY-4; 200 nM) and ZnSO4 (various concentrations). The solutions were equilibrated in the dark for 1 h prior to measurement. The concentration of ZnSO4 was varied from 1 μM to 9 mM in buffer solution (50 mM HEPES and 0.1 M KNO3, and pH 7.2) containing 10 mM EGTA. Free Zn^2+ was calculated according to a previously reported method (Ref. B4; incorporated by reference in its entirety). Data was fit to the following one-site binding equation: F=(FminKd+Fmax[Zn^2+])/(Kd+[Zn^2+]) pH Response. The fluorescence spectra of zinc probes (ZincBY-2, ZincBY-3, or ZincBY-4; 200 nM) wasere measured at various pH values (4.5-11). The following buffers were used at 50 mM concentration with 0.1 M KNO3: NaOAc/AcOH (pH 4.0-4.5), MES (pH 5.0-6.5), HEPES (pH 7.0-8.0), CHES (pH 8.5-9.5), CAPS (pH 10.0-11.0). Metal Ion Response. The fluorescence spectra of zinc probes (ZincBY-2, ZincBY-3, or ZincBY-4; 200 nM) were measured in the presence an excess of metal ion including 1 mM KNO3, 1 mM NaNO3, 1 mM CaSO4, 1 mM MgSO4, 15 μM MnSO4, 15 μM (NH4)2Fe(SO4)2, 15 μM NH4Fe(SO4)2, 15 μM CoSO4, 15 μM NiSO4, 15 μM CuSO4, 15 μM [Cu(CH3CN)4]PF6, 15 μM CdSO4, 15 μM Hg(NO3)2, 15 μM Pb(NO3)2, or 15 μM ZnSO4. The fluorescence spectra were compared to that of ZincBY-2 (200 nM), ZincBY-3 (200 nM), or ZincBY-4 (200 nM) in the presence of 10 μM TPEN. Determination of octanol-water partition coefficients (log P). A log P value for each probe was determined by agitating nanomolar solutions of each probe in a 1:1 mixture of HEPES buffer and 1-octanol. Solutions were allowed to settle for 1 h and then the fluorescence intensity of each phase was measured. Standard curves of the fluorescence of known concentrations of probes in both solutions were used to determine concentrations. […]

Sequence of BSA (P02769 25-607): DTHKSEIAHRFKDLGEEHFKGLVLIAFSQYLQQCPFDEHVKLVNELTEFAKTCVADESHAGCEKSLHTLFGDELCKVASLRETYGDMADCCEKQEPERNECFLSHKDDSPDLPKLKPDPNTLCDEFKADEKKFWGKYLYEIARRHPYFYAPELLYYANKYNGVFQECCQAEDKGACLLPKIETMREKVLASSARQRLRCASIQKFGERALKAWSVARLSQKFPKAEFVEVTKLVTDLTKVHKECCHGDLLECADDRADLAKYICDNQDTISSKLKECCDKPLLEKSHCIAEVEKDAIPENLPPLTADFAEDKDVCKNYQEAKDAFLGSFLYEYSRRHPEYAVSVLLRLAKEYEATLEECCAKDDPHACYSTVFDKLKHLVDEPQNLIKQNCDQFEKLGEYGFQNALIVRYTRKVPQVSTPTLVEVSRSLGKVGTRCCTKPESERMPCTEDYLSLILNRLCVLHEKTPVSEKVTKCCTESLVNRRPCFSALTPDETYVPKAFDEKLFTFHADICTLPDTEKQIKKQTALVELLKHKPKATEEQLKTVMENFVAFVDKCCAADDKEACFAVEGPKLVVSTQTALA

For the molecule `COc1ccc2n1[B-](F)(F)[N+]1=C(N(CCN(Cc3ccccn3)Cc3ccccn3)Cc3ccccn3)C=CC1=C2c1c(C)cc(C)cc1C` [ZincBY-1, reference compound], the “interaction with BSA (in words)” value is recorded as “The same interactions can be found” and the “fluorescence turn-on in response to zinc in the presence of BSA” value is given as “the fluorescence of apo-ZincBY-1 matches that of holo-ZincBY-1; also recorded: no fluorescence turn-on was observed”.

As for `Cc1cc(C)c(C2=C3C=CC(OCCN=[N+]=[N-])=[N+]3[B-](F)(F)n3c2ccc3N(CCN(Cc2ccccn2)Cc2ccccn2)Cc2ccccn2)c(C)c1` [ZincBY-2, N1-(7-(2-azidoethoxy)-5,5-difluoro-10-mesityl-5H-4λ4,5λ4-dipyrrolo[1,2-c:2′,1′-f][1,3,2]diazaborinin-3-yl)-N1,N2,N2-tris(pyridin-2-ylmethyl)ethane-1,2-diamine], the “interaction with BSA (in words)” value was “The same interactions can be found”.

For the molecule `Cc1cc(C)c(C2=C3C=CC(OCCN)=[N+]3[B-](F)(F)n3c2ccc3N(CCN(Cc2ccccn2)Cc2ccccn2)Cc2ccccn2)c(C)c1` [ZincBY-3, N1-(7-(2-aminoethoxy)-5,5-difluoro-10-mesityl-5H-4λ4,5λ4-dipyrrolo[1,2-c:2′,1′-f][1,3,2]diazaborinin-3-yl)-N1,N2,N2-tris(pyridin-2-ylmethyl)ethane-1,2-diamine], the “interaction with BSA (in words)” value is recorded as “The same interactions can be found”.

In the case of `CC(=O)NCCOc1ccc2n1[B-](F)(F)[N+]1=C(N(CCN(Cc3ccccn3)Cc3ccccn3)Cc3ccccn3)C=CC1=C2c1c(C)cc(C)cc1C` [ZincBY-4, N-(2-((7-((2-(bis(pyridin-2-ylmethyl)amino)ethyl)(pyridin-2-ylmethyl)amino)-5,5-difluoro-10-mesityl-5H-5λ4,6λ4-dipyrrolo[1,2-c:2′,1′-f][1,3,2]diazaborinin-3-yl)oxy)ethyl)acetamide], the “interaction with BSA (in words)” value was “binds readily to the lipid transport protein” and the “fluorescence turn-on in response to zinc in the presence of BSA” value is listed as “two-fold increase in fluorescence intensity over its apo form; also recorded: ca. two-fold”. Moreover, the polarization (presence of excess BSA) is given as 0.37. Besides, the polarization (without BSA) came out at 0.03. Besides, the “emission maximum in the presence of BSA” value (apo) is reported as 590 nm. Moreover, the “emission maximum in the presence of BSA” value (holo, excited at 480 nm) came to 575 nm.

Source of the values: patent publication US11953435B2, “Zinc-responsive fluorophores” (Northwestern University, priority 2019, dated 2024).
